In patent US20250250231A1, “NOVEL SUBSTITUTED 4-AMINO-4-OXO-BUT-2-ENYL DERIVATIVES, PROCESSES FOR THEIR PREPARATION AND THERAPEUTIC USES THEREOF” (SANOFI, priority 2022, published 2025):
Read-outs that look alike come from different tables or passages of the source.

Assays:
Assay type in all cases: cell-based
MCF7-Y537S cells = assay: In vitro anti-proliferation assay (CellTiter-Glo viability), MCF7-Y537S cells; conditions: viability on day 8, relative IC50
Experimental: (§1) Test: In vitro anti-proliferation assay
(§2) Said test involves measuring the in vitro anti-proliferation activity of the compounds of the Table 1a.
(§3) The measurements of the anti-proliferation activities were made using MCF7-WT (ATCC), MCF7-Y537S and HCC1428-LTED cells as described hereunder.
(§4) On Day 1, MCF7-WT and MCF7-Y537S (Mol Cancer Ther. 2021 20(2):250-262), and HCC1428-LTED (J Clin Invest. 2010; 120(7):2406-2413) cells, were seeded at 2000 (WT and LTED) and 500 (Y537S) cells/well in phenol red free IMEM (Corning, 110-026-CV) with 5% Charcoal stripped-FBS and incubated overnight 37° C. and 5% CO2.
(§5) On day 2, compounds were tested in triplicate in 10-point dose response (1:3 serial dilutions with a top concentration starting 300 nM); DMSO for upper limit (negative control) and staurosporine (1 uM) for lower limit (positive control) were also included. MCF7-WT cells were then supplemented with final 0.1 nM b-estradiol. After treating the cells, the assay plates were transferred back in the incubator at 37° C. and 5% CO2.
(§6) On day 8, cell viability was measured per vendor recommendations (CellTiter-Glo, Promega). Relative IC50 measurements were calculated as follow using a 4-parameter logistic derived from Levenburg Marquardt algorithm (IDBS XL Model 205 fit within A-base).

MCF7-WT cells = assay: In vitro anti-proliferation assay (CellTiter-Glo viability), MCF7-WT cells; conditions: MCF7-WT cells supplemented with 0.1 nM b-estradiol, viability on day 8, relative IC50
Experimental: as §1, §2, §3, §4, §5, §6

HCC1428-LTED cells = assay: In vitro anti-proliferation assay (CellTiter-Glo viability), HCC1428-LTED cells; conditions: viability on day 8, relative IC50, read-out: HCC 1428 IC50
Experimental: as §1, §2, §3, §4, §5, §6

Structure (SMILES)	IC50 (MCF7-Y537S cells; Homo sapiens, MCF7, 192 h)	IC50 (MCF7-WT cells; Homo sapiens, MCF7, 192 h)	IC50 (HCC1428-LTED cells; Homo sapiens, HCC1428, 192 h)	IC50 (MCF7-Y537S cells)	IC50 (MCF7-WT cells)	IC50 (HCC1428-LTED cells)
CN(C)C(=O)/C=C/CN1CC(Oc2ccc(C3=C(c4ccc(Cl)cc4Cl)CCCc4cc(C(=O)O)ccc43)cc2)C1 [Compound 12, (E)-8-(2,4-dichlorophenyl)-9-(4-((1-(4-(dimethylamino)-4-oxobut-2-en-1-yl)azetidin-3-yl)oxy)phenyl)-6,7-dihydro-5H-benzo[7]annulene-3-carboxylic acid]	≥ 500 nM	126 nM	3 nM			
CN(C)C(=O)/C=C/CN1CC[C@H](Oc2ccc(C3=C(c4ccccc4)CCCc4cc(C(=O)O)ccc43)cc2)C1 [Compound 6, (S,E)-9-(4-((1-(4-(dimethylamino)-4-oxobut-2-en-1-yl)pyrrolidin-3-yl)oxy)phenyl)-8-phenyl-6,7-dihydro-5H-benzo[7]annulene-3-carboxylic acid]	≥ 500 nM	14 nM	0.7 nM			
CN(C)C(=O)/C=C/CN1CC(=Cc2ccc(C3=C(c4ccc(Cl)cc4Cl)CCCc4cc(C(=O)O)ccc43)cc2)C1 [Compound 14, (E)-8-(2,4-dichlorophenyl)-9-(4-((1-(4-(dimethylamino)-4-oxobut-2-en-1-yl)azetidin-3-ylidene)methyl)phenyl)-6,7-dihydro-5H-benzo[7]annulene-3-carboxylic acid]	0.4 nM	101 nM	0.4 nM			
CN(C)C(=O)/C=C/CN1CCC(Cc2ccc(C3=C(c4ccc(Cl)cc4Cl)CCCc4cc(C(=O)O)ccc43)cc2)C1 (single isomer, unassigned; isomer 2) [Compound 19, (E)-8-(2,4-dichlorophenyl)-9-(4-((1-(4-(dimethylamino)-4-oxobut-2-en-1-yl)pyrrolidin-3-yl)methyl)phenyl)-6,7-dihydro-5H-benzo[7]annulene-3-carboxylic acid, Isomer 2]				20.7 nM	9 nM	0.2 nM
CN(C)C(=O)/C=C/CN1CC(Cc2ccc(C3=C(c4ccc(Cl)cc4Cl)CCCc4cc(C(=O)O)ccc43)cc2)C1 [Compound 13, (E)-8-(2,4-dichlorophenyl)-9-(4-((1-(4-(dimethylamino)-4-oxobut-2-en-1-yl)azetidin-3-yl)methyl)phenyl)-6,7-dihydro-5H-benzo[7]annulene-3-carboxylic acid compound with 2,2,2-trifluoroacetic acid (1:1)]	9 nM	3 nM	0.01 nM			

The next lines start with the values.

IC50 (MCF7-Y537S cells; Homo sapiens, MCF7, 192 h)	IC50 (MCF7-WT cells; Homo sapiens, MCF7, 192 h)	IC50 (HCC1428-LTED cells; Homo sapiens, HCC1428, 192 h)	IC50 (MCF7-Y537S cells)	IC50 (MCF7-WT cells)	IC50 (HCC1428-LTED cells)	Structure (SMILES)
≥ 500 nM	41 nM	1 nM				CN(C)C(=O)/C=C/CN1CC/C(=C/c2ccc(C3=C(c4ccc(Cl)cc4Cl)CCCc4cc(C(=O)O)ccc43)cc2)C1 [Compound 20, 8-(2,4-dichlorophenyl)-9-(4-((Z)-(1-((E)-4-(dimethylamino)-4-oxobut-2-en-1-yl)pyrrolidin-3-ylidene)methyl)phenyl)-6,7-dihydro-5H-benzo[7]annulene-3-carboxylic acid]
≥ 500 nM	300 nM	17 nM				CN(C)C(=O)/C=C/CN1CC[C@H](Oc2ccc(C3=C(c4ccc(Cl)cc4Cl)CCc4cc(C(=O)O)ccc43)cc2)C1 [Compound 25, (S,E)-6-(2,4-dichlorophenyl)-5-(4-((1-(4-(dimethylamino)-4-oxobut-2-en-1-yl)pyrrolidin-3-yl)oxy)phenyl)-7,8-dihydronaphthalene-2-carboxylic acid]
